For 25 compounds, IC50 results are on record in patent EP3807270B1, “NOVEL HETEROARYL HETEROCYCLYL COMPOUNDS FOR THE TREATMENT OF AUTOIMMUNE DISEASE” (F. Hoffmann-La Roche AG, priority 2018, dated 2019).

This assay has as its target T1, hTLR9 (Homo sapiens, UniProt Q9NR96).
T1 sequence (Q9NR96 26-1032): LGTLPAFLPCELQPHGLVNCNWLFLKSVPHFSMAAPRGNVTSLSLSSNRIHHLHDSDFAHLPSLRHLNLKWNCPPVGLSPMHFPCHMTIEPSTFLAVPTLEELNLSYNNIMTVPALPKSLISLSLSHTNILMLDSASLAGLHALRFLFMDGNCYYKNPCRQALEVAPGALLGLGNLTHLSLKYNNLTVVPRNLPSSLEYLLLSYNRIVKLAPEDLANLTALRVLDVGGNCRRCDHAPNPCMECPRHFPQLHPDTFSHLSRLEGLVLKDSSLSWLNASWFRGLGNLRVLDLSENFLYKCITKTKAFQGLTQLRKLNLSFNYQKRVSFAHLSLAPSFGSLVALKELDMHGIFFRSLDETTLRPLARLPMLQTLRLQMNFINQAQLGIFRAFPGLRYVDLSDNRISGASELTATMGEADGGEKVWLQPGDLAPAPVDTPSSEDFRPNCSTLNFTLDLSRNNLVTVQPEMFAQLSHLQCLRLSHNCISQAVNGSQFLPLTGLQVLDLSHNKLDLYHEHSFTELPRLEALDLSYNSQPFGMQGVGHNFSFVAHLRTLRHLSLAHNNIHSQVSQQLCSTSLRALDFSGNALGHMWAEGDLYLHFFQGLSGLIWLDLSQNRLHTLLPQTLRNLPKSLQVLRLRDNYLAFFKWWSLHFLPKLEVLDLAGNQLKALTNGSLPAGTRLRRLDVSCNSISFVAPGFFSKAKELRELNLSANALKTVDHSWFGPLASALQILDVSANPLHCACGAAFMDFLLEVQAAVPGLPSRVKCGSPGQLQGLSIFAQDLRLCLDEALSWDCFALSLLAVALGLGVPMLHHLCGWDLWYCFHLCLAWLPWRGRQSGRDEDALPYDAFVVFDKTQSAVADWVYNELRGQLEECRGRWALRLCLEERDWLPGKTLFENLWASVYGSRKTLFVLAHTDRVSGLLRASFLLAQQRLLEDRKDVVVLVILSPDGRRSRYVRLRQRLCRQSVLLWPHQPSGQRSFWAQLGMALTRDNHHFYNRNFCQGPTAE
Kind of assay: HEK293-Blue-hTLR-9 cells assay (SEAP reporter, ODN2006 stimulation). Format: cell-based. The arrangement: host or cells: HEK293 (HEK-Blue). To be noted: HEK293-Blue-hTLR9 cells, ODN2006, 20 hrs; read-out: HEK/hTLR9 IC50. An excerpt: A stable HEK293-Blue-hTLR-9 cell line was purchased from InvivoGen (Cat.#: hkb-htlr9, San Diego, California, USA). These cells were originally designed for studying the stimulation of human TLR9 by monitoring the activation of NF-κB. A SEAP (secreted embryonic alkaline phosphatase) reporter gene was placed under the control of the IFN-β minimal promoter fused to five NF-κB and AP-1-binding sites. The SEAP was induced by activating NF-κB and AP-1 via stimulating HEK-Blue hTLR9 cells with TLR9 ligands. Therefore, the reporter expression was declined by TLR9 antagonist under the stimulation of a ligand, such as ODN2006 (Cat.#: tlrl-2006-1, Invivogen, San Diego, California, USA), for incubation of 20 hrs. The cell culture supernatant SEAP reporter activity was determined using QUANTI-Blue™ kit (Cat.#: rep-qb 1, Invivogen, San Diego, California, USA) at a wavelength of 640 nm, a detection medium that turns purple or blue in the presence of alkaline phosphatase.
HEK293-Blue-hTLR9 cells were incubated at a density of 250,000-450,000 cells/mL in a volume of 170 µL in a 96-well plate in Dulbecco's Modified Eagle's medium (DMEM) containing 4.5 g/L glucose, 50 U/mL penicillin, […], […], 2 mM L-glutamine, 10% (v/v) heat-inactivated fetal bovine serum with addition of 20 µL test compound in a serial dilution in the presence of final DMSO at 1% and 10 µL of 20uM ODN2006 in above DMEM, perform incubation under 37 °C in a CO2 incubator for 20 hrs. Then 20 µL of the supernatant from each well was incubated with 180 µL Quanti-blue substrate solution at 37 °C for 2 hrs and the absorbance was read at 620-655 nm using a spectrophotometer. The signaling pathway that TLR9 activation leads to downstream NF-κB activation has been widely accepted, and therefore similar reporter assay was modified for evaluating TLR9 antagonist.

Some results are limits rather than exact numbers.

As for `C[C@@H]1CN(c2ccc(C#N)c3ncccc23)C[C@H](CN2CCN(c3ccc4c(n3)CCNC4)C[C@H](O)C2)O1` (single isomer, unassigned) [Example 35A], the IC50 stood at 147 nM.

For the compound `CC1NCc2cc(N3CCN(C[C@H]4CN(c5ccc(C#N)c6ncccc56)C[C@@H](C)O4)CC3)ccc21` (stereo partly drawn) [Example 28, 5-[(2R,6S)-2-methyl-6-[[4-(1-methylisoindolin-5-yl)piperazin-1-yl]methyl]morpholin-4-yl]quinoline-8-carbonitrile], the IC50 was 52 nM.

As for `C[C@@H]1Cc2cnc(N3CCN(C[C@H]4CN(c5ccc(C#N)c6nccnc56)C[C@@H](C)O4)CC3)cc2CN1` (single isomer, unassigned) [Example 82], the IC50 was 192 nM.

As to `C[C@@H]1CN(c2ccc(C#N)c3ncccc23)C[C@H](CN2CCN(c3ccc4c(n3)CN[C@H]4C)CC2)O1` (single isomer, unassigned) [Example 63], the IC50 is 67 nM.

As for `C[C@@H]1CN(c2ccc(C#N)c3ncccc23)C[C@H](CNC2CN(c3cnc4c(c3)CNC4)C2)O1` [Example 43, 5-[(2S,6R)-2-[[[1-(6,7-dihydro-5H-pyrrolo[3,4-b]pyridin-3-yl)azetidin-3-yl]amino]methyl]-6-methyl-morpholin-4-yl]quinoline-8-carbonitrile], the IC50 was found to be 111 nM.

For the compound `C[C@@H]1CN(c2ccc(C#N)c3ncccc23)C[C@H](CN2CCN(c3ccc4c(c3)C(O)CN(C)C4)CC2)O1` (stereo partly drawn) [Example 59, 5-[(2S,6R)-2-[[4-(4-hydroxy-2-methyl-3,4-dihydro-1H-isoquinolin-6-yl)piperazin-1-yl]methyl]-6-methyl-morpholin-4-yl]quinoline-8-carbonitrile], the IC50 was determined as 133 nM.

Take `C[C@@H]1CN(c2ccc(C#N)c3ncccc23)C[C@H](CN2CCN(c3ncnc4c3CNCC4)CC2)O1` [Example 61, 5-[(2R,6S)-2-methyl-6-[[4-(5,6,7,8-tetrahydropyrido[4,3-d]pyrimidin-4-yl)piperazin-1-yl]methyl]morpholin-4-yl]quinoline-8-carbonitrile]: the IC50 came to 229 nM.

As to `C[C@@H]1CN(c2ccc(C#N)c3ncccc23)C[C@H](CN2CCN(c3ccc4c(n3)[C@H](C)NC4)CC2)O1` (single isomer, unassigned) [Example 66], the IC50 amounted to 112 nM.

Turning to `COc1ccc(N2CCN(C[C@H]3CN(c4ccc(C#N)c5ncccc45)C[C@@H](C)O3)CC2)cc1` [Example R1, 5-[(2S,6R)-2-[[4-(4-methoxyphenyl)piperazin-1-yl]methyl]-6-methyl-morpholin-4-yl]quinoline-8-carbonitrile, reference compound], the IC50 is 6620 nM.

Consider `Cc1nc2c(nc1N1CCN(C[C@H]3CN(c4ccc(C#N)c5ncccc45)C[C@@H](C)O3)CC1)CCNC2` [Example 60, 5-[(2R,6S)-2-methyl-6-[[4-(3-methyl-5,6,7,8-tetrahydropyrido[3,4-b]pyrazin-2-yl)piperazin-1-yl]methyl]morpholin-4-yl]quinoline-8-carbonitrile], for which the IC50 turned out to be 156 nM.

Take `C[C@@H]1CN(c2ccc(C#N)c3ncccc23)C[C@H](CN2CCN(c3cc4c(cn3)[C@H](C)NCC4)CC2)O1` (single isomer, unassigned) [Example 72]: the IC50 stood at 66 nM.

As to `C[C@@H]1CN(c2ccc(C#N)c3ncccc23)C[C@H](CN2CCN(c3cc4c(cn3)CN[C@@H](C)C4)CC2)O1` (single isomer, unassigned) [Example 71], the IC50 was 91 nM.

As to `C[C@@H]1CN(c2ccc(C#N)c3ncccc23)C[C@H](CN2CCN(c3ccc(Cl)cc3)CC2)O1` [Example R2, 5-[(2S,6R)-2-[[4-(4-chlorophenyl)piperazin-1-yl]methyl]-6-methyl-morpholin-4-yl]quinoline-8-carbonitrile, reference compound], the IC50 was determined as 7030 nM.

Consider `C[C@@H]1CN(c2ccc(C#N)c3ncccc23)C[C@H](CN2CCN(c3ccc4c(c3)CNC4)CC2CO)O1` (stereo partly drawn) [Example 15, 5-[(2S,6R)-2-[[2-(hydroxymethyl)-4-isoindolin-5-yl-piperazin-1-yl]methyl]-6-methyl-morpholin-4-yl]quinoline-8-carbonitrile], for which the IC50 was 97 nM.

On to `C[C@@H]1CN(c2ccc(C#N)c3ncccc23)C[C@H](CN2CCN(c3ccc4c(n3)[C@@H](C)NC4)CC2)O1` (single isomer, unassigned) [Example 65], for which the IC50 stood at 81 nM.

As for `C[C@@H]1CN(c2ccc(C#N)c3ncccc23)C[C@H](CN2CCN(c3ncc4c(n3)CNCC4)CC2)O1` [Example 12, 5-[(2R,6S)-2-methyl-6-[[4-(5,6,7,8-tetrahydropyrido[3,4-d]pyrimidin-2-yl)piperazin-1-yl]methyl]morpholin-4-yl]quinoline-8-carbonitrile], the IC50 was determined as 143 nM.

As for `C[C@@H]1CN(c2ccc(C#N)c3ncccc23)C[C@H](CN2CCN(c3cnc4c(c3)CN[C@H]4C)CC2)O1` (single isomer, unassigned) [Example 67], the IC50 is 143 nM.

As for `C[C@@H]1Cc2cc(N3CCN(C[C@H]4CN(c5ccc(C#N)c6ncccc56)C[C@@H](C)O4)CC3)ncc2CN1` (single isomer, unassigned) [Example 70], the IC50 was 83 nM.

For the compound `C[C@@H]1CN(c2ccc(C#N)c3ncccc23)C[C@H](CN2CCN(c3ccc4c(n3)CN[C@@H]4C)CC2)O1` (single isomer, unassigned) [Example 64], the IC50 stood at 92 nM.

With `C[C@@H]1CN(c2ccc(C#N)c3ncccc23)C[C@H](CN2CCN(c3cc4c(cn3)CCN[C@H]4C)CC2)O1` (single isomer, unassigned) [Example 75], the IC50 was determined as 68 nM.

Regarding `C[C@@H]1CN(c2ccc(C#N)c3ncccc23)C[C@H](CN2C[C@H]3CN(c4ccc5c(n4)CCNC5)CC[C@@H]32)O1` (single isomer, unassigned) [Example 54], the IC50 was less than 32 nM.

Take `C[C@@H]1CN(c2ccc(C#N)c3ncccc23)C[C@H](CN2CCN(c3ccc4c(c3)CNC4)[C@@H](CO)C2)O1` [Example 4, 5-[(2S,6R)-2-[[(3R)-3-(hydroxymethyl)-4-isoindolin-5-yl-piperazin-1-yl]methyl]-6-methyl-morpholin-4-yl]quinoline-8-carbonitrile]: the IC50 came to 148 nM.

For the compound `C[C@@H]1CN(c2ccc(C#N)c3ncccc23)C[C@H](CN2CCC(Nc3ccc4c(c3)CNC4)C2)O1` (stereo partly drawn) [Example 38, 5-[(2S,6R)-2-[[3-(isoindolin-5-ylamino)pyrrolidin-1-yl]methyl]-6-methyl-morpholin-4-yl]quinoline-8-carbonitrile], the IC50 was determined as 34 nM.

Consider `C[C@@H]1Cc2cnc(N3CCN(C[C@H]4CN(c5ccc(C#N)c6ncccc56)C[C@@H](C)O4)CC3)cc2CN1` (single isomer, unassigned) [Example 77], for which the IC50 was determined as 115 nM.

Turning to `C[C@@H]1CN(c2ccc(C#N)c3ncccc23)C[C@H](CN2CCN(c3nc4c(s3)CNCC4)CC2)O1` [Example 31, 5-[(2R,6S)-2-methyl-6-[[4-(4,5,6,7-tetrahydrothiazolo[5,4-c]pyridin-2-yl)piperazin-1-yl]methyl]morpholin-4-yl]quinoline-8-carbonitrile], the IC50 amounted to 140 nM.
